What was measured:
wild oat [1] = test: Test Example 5: herbicidal effect by foliage application, plastic box (Table 20, symbol I); assay type: in vivo, wild oat (Avena fatua); conditions: foliage application; for I: wild oat, herbicidal effect (criteria 0-5): AAH 320 g/ha
Outline: (§1)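 Foliar spray test: emulsion formulation diluted in water to a set application rate, sprayed onto 14-day-old plants raised in diluvial soil at 25° C to 30° C under glass. Both herbicidal effect and crop effect rated visually three weeks later.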

rice flat sedge = test: Test Example 3: herbicidal effect by foliage application, Wagner pot (Table 18, symbol E); assay type: in vivo, rice flat sedge (Cyperus iria); conditions: for herbicidal effect on E: rice flat sedge: amount of applied herbicide 320 g/ha
Outline: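 Plants were sown in alluvial soil held under 0.1–0.5 cm standing water and grown 14 days in a greenhouse at 25–30 °C. An emulsifiable formulation, water-diluted to the set dose, was then sprayed onto the foliage, and effects were scored three weeks later using previously defined criteria.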

Japanese bulrush = test: Test Example 1: herbicidal activity, application before weed generation under submerged conditions (Table 16, symbol B); assay type: in vivo, Japanese bulrush (Schoenoplectus juncoides); conditions: for Herbicidal effect on B: Japanese bulrush (grade 0-5): 320 g/ha applied herbicide
Outline: (§2)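 Emulsion formulation, water-diluted to set dose, was put onto the flooded surface (4 cm depth, alluvial soil) the same day weeds were sown and 2.5-leaf rice transplanted. After 3 weeks at 25-30 °C under glass, each species was rated 0 (≤5% kill) to 5 (≥90% kill).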

wild oat [2] = test: Test Example 4: herbicidal effect by soil treatment (Table 19, symbol I); assay type: in vivo, wild oat (Avena fatua); conditions: for herbicidal effect on I: wild oat: amount of applied herbicide 320 g/ha
Outline: (§3)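 Herbicidal effect was rated 3 weeks after treatment, using the scoring criteria of an earlier test. The compound, formulated as an emulsion and diluted in water to a set herbicide amount, had been sprayed uniformly on soil over freshly sown seeds. Growth took place in a greenhouse at 25° C. to 30° C.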

redroot pigweed [3] = test: Test Example 5: herbicidal effect by foliage application, plastic box (Table 20, symbol N); assay type: in vivo, redroot pigweed (Amaranthus retroflexus); conditions: foliage application; for N: redroot pigweed, herbicidal effect (criteria 0-5): AAH 320 g/ha
Outline: as §1

velvetleaf = test: Test Example 5: herbicidal effect by foliage application, plastic box (Table 20, symbol M); assay type: in vivo, velvetleaf (Abutilon theophrasti); conditions: foliage application; for M: velvetleaf, herbicidal effect (criteria 0-5): AAH 320 g/ha
Outline: as §1

chickweed [4] = test: Test Example 5: herbicidal effect by foliage application, plastic box (Table 20, symbol P); assay type: in vivo, common chickweed (Stellaria media); conditions: foliage application; for P: chickweed, herbicidal effect (criteria 0-5): AAH 320 g/ha
Outline: as §1

chickweed [5] = test: Test Example 4: herbicidal effect by soil treatment (Table 19, symbol P); assay type: in vivo, common chickweed (Stellaria media); conditions: for herbicidal effect on P: chickweed: amount of applied herbicide 320 g/ha
Outline: as §3

oval-leafed pondweed [6] = test: Test Example 2: herbicidal activity, application during weed generation under submerged conditions (Table 17, symbol C); assay type: in vivo, oval-leafed pondweed (Monochoria vaginalis); conditions: application during weed generation, submerged conditions
Outline: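 In this pot test, flooded alluvial soil (water depth 4 cm) holds all three species sown as a mixture. Once seedlings have one to two leaves, the compound's emulsion, thinned with water to the intended dose, is poured on the water; grading follows after three weeks on the earlier criteria.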

blackgrass = test: Test Example 5: herbicidal effect by foliage application, plastic box (Table 20, symbol J); assay type: in vivo, blackgrass (Alopecurus myosuroides); conditions: foliage application; for J: blackgrass, herbicidal effect (criteria 0-5): AAH 320 g/ha
Outline: as §1

redroot pigweed [7] = test: Test Example 4: herbicidal effect by soil treatment (Table 19, symbol N); assay type: in vivo, redroot pigweed (Amaranthus retroflexus); conditions: for herbicidal effect on N: redroot pigweed: amount of applied herbicide 320 g/ha
Outline: as §3

green foxtail [8] = test: Test Example 5: herbicidal effect by foliage application, plastic box (Table 20, symbol G); assay type: in vivo, green foxtail (Setaria viridis); conditions: foliage application; for G: green foxtail, herbicidal effect (criteria 0-5): AAH 320 g/ha
Outline: as §1

barnyard grass [9] = test: Test Example 4: herbicidal effect by soil treatment (Table 19, symbol H); assay type: in vivo, barnyard grass (Echinochloa crus-galli); conditions: for herbicidal effect on H: barnyard grass: amount of applied herbicide 320 g/ha
Outline: as §3

barnyard grass [10] = test: Test Example 5: herbicidal effect by foliage application, plastic box (Table 20, symbol H); assay type: in vivo, barnyard grass (Echinochloa crus-galli); conditions: foliage application; for H: barnyard grass, herbicidal effect (criteria 0-5): AAH 320 g/ha
Outline: as §1

green foxtail [11] = test: Test Example 4: herbicidal effect by soil treatment (Table 19, symbol G); assay type: in vivo, green foxtail (Setaria viridis); conditions: for herbicidal effect on G: green foxtail: amount of applied herbicide 320 g/ha
Outline: as §3

oval-leafed pondweed [12] = test: Test Example 1: herbicidal activity, application before weed generation under submerged conditions (Table 16, symbol C); assay type: in vivo, oval-leafed pondweed (Monochoria vaginalis); conditions: for Herbicidal effect on C: oval-leafed pondweed (grade 0-5): 320 g/ha applied herbicide
Outline: as §2

[13] = evaluated three weeks after application
[14] = 80 g/ha, three weeks after application
[15] = amount of applied herbicide 80 g/ha
[16] = 320 g/ha, evaluated three weeks after application

| SMILES | I: wild oat, herbicidal effect (criteria 0-5) (wild oat [1]; [13]) | herbicidal effect on E: rice flat sedge (rice flat sedge) | Herbicidal effect on B: Japanese bulrush (grade 0-5) (Japanese bulrush) | herbicidal effect on I: wild oat (wild oat [2]) | N: redroot pigweed, herbicidal effect (criteria 0-5) (redroot pigweed [3]; [13]) | M: velvetleaf, herbicidal effect (criteria 0-5) (velvetleaf; [13]) | P: chickweed, herbicidal effect (criteria 0-5) (chickweed [4]; [13]) | herbicidal effect on P: chickweed (chickweed [5]) | herbicidal effect rating, C: oval-leafed pondweed (oval-leafed pondweed [6]; AAH 320 g/ha) | J: blackgrass, herbicidal effect (criteria 0-5) (blackgrass; [13]) | herbicidal effect on N: redroot pigweed (redroot pigweed [7]) | G: green foxtail, herbicidal effect (criteria 0-5) (green foxtail [8]; [13]) | herbicidal effect on H: barnyard grass (barnyard grass [9]) | H: barnyard grass, herbicidal effect (criteria 0-5) (barnyard grass [10]; [13]) | herbicidal effect on G: green foxtail (green foxtail [11]) | Herbicidal effect on C: oval-leafed pondweed (grade 0-5) (oval-leafed pondweed [12]) | other results |
| --- | --- | --- | --- | --- | --- | --- | --- | --- | --- | --- | --- | --- | --- | --- | --- | --- | --- |
| Cc1nn(C)c(=O)c(-c2c(-c3ccc(CSCC(F)(F)F)cc3)sc3ccc(F)cc23)c1O [2-331] | 3 (Herbicidal rate of 40% or more and less than 70%) | 4 (Herbicidal rate of 70% or more and less than 90%) | 3 (Herbicidal rate of 40% or more and less than 70%) | 0 (Herbicidal rate of 5% or less (almost no effect)) | 5 (Herbicidal rate of 90% or more (almost completely withered)) | 5 (Herbicidal rate of 90% or more (almost completely withered)) | 5 (Herbicidal rate of 90% or more (almost completely withered)) | 0 (Herbicidal rate of 5% or less (almost no effect)) | 0 (Herbicidal rate of 5% or less (almost no effect)) | 4 (Herbicidal rate of 70% or more and less than 90%) | 5 (Herbicidal rate of 90% or more (almost completely withered)) | 5 (Herbicidal rate of 90% or more (almost completely withered)) | 3 (Herbicidal rate of 40% or more and less than 70%) | 5 (Herbicidal rate of 90% or more (almost completely withered)) | 4 (Herbicidal rate of 70% or more and less than 90%) | 0 (Herbicidal rate of 5% or less (almost no effect)) | – |
| CCOc1ccccc1-c1sc2cc(OC)ccc2c1-c1c(O)c(C)nn(C)c1=O [3-070] | – | – | – | – | – | – | – | – | – | – | – | – | – | – | – | – | I: wild oat, herbicidal effect grade (wild oat [1]; [14]): 5 (Herbicidal rate of 90% or more (almost completely withered)); herbicidal effect on rice flat sedge (E) (rice flat sedge; 80 g/ha): 5 (Herbicidal rate of 90% or more (almost completely withered)); Herbicidal effect, B: Japanese bulrush (Japanese bulrush; [15]): 5 (Herbicidal rate of 90% or more (almost completely withered)); I: wild oat, herbicidal effect grade (wild oat [2]; [15]): 0 (Herbicidal rate of 5% or less (almost no effect)); N: redroot pigweed, herbicidal effect grade (redroot pigweed [3]; [14]): 5 (Herbicidal rate of 90% or more (almost completely withered)); M: velvetleaf, herbicidal effect grade (velvetleaf; [14]): 5 (Herbicidal rate of 90% or more (almost completely withered)); P: chickweed, herbicidal effect grade (chickweed [4]; [14]): 5 (Herbicidal rate of 90% or more (almost completely withered)); P: chickweed, herbicidal effect grade (chickweed [5]; [15]): 4 (Herbicidal rate of 70% or more and less than 90%); herbicidal effect rating, C: oval-leafed pondweed (oval-leafed pondweed [6]; AAH 80 g/ha): 4 (Herbicidal rate of 70% or more and less than 90%); J: blackgrass, herbicidal effect grade (blackgrass; [14]): 5 (Herbicidal rate of 90% or more (almost completely withered)); N: redroot pigweed, herbicidal effect grade (redroot pigweed [7]; [15]): 0 (Herbicidal rate of 5% or less (almost no effect)); G: green foxtail, herbicidal effect grade (green foxtail [8]; [14]): 4 (Herbicidal rate of 70% or more and less than 90%); H: barnyard grass, herbicidal effect grade (barnyard grass [9]; [15]): 0 (Herbicidal rate of 5% or less (almost no effect)); H: barnyard grass, herbicidal effect grade (barnyard grass [10]; [14]): 5 (Herbicidal rate of 90% or more (almost completely withered)); G: green foxtail, herbicidal effect grade (green foxtail [11]; [15]): 3 (Herbicidal rate of 40% or more and less than 70%); Herbicidal effect, C: oval-leafed pondweed (oval-leafed pondweed [12]; [15]): 4 (Herbicidal rate of 70% or more and less than 90%) |
| COCCOC(=O)Oc1c(C)nn(C)c(=O)c1-c1c(-c2ccc(OC(F)F)cc2)sc2ccc(F)cc12 [2-295] | 3 (Herbicidal rate of 40% or more and less than 70%) | 5 (Herbicidal rate of 90% or more (almost completely withered)) | 3 (Herbicidal rate of 40% or more and less than 70%) | 1 (Herbicidal rate of 5% or more and less than 20%) | 5 (Herbicidal rate of 90% or more (almost completely withered)) | 5 (Herbicidal rate of 90% or more (almost completely withered)) | 5 (Herbicidal rate of 90% or more (almost completely withered)) | 4 (Herbicidal rate of 70% or more and less than 90%) | 3 (Herbicidal rate of 40% or more and less than 70%) | 4 (Herbicidal rate of 70% or more and less than 90%) | 5 (Herbicidal rate of 90% or more (almost completely withered)) | 5 (Herbicidal rate of 90% or more (almost completely withered)) | 5 (Herbicidal rate of 90% or more (almost completely withered)) | 5 (Herbicidal rate of 90% or more (almost completely withered)) | 5 (Herbicidal rate of 90% or more (almost completely withered)) | 2 (Herbicidal rate of 20% or more and less than 40%) | – |
| COc1cccc(S(=O)(=O)Oc2c(C)nn(C)c(=O)c2-c2c(-c3ccc(OC(F)F)cc3)sc3ccc(F)cc23)c1 [2-313] | 2 (Herbicidal rate of 20% or more and less than 40%) | 5 (Herbicidal rate of 90% or more (almost completely withered)) | 3 (Herbicidal rate of 40% or more and less than 70%) | 0 (Herbicidal rate of 5% or less (almost no effect)) | 5 (Herbicidal rate of 90% or more (almost completely withered)) | 5 (Herbicidal rate of 90% or more (almost completely withered)) | 5 (Herbicidal rate of 90% or more (almost completely withered)) | 5 (Herbicidal rate of 90% or more (almost completely withered)) | 3 (Herbicidal rate of 40% or more and less than 70%) | 4 (Herbicidal rate of 70% or more and less than 90%) | 5 (Herbicidal rate of 90% or more (almost completely withered)) | 5 (Herbicidal rate of 90% or more (almost completely withered)) | 1 (Herbicidal rate of 5% or more and less than 20%) | 5 (Herbicidal rate of 90% or more (almost completely withered)) | 2 (Herbicidal rate of 20% or more and less than 40%) | 0 (Herbicidal rate of 5% or less (almost no effect)) | – |
| Cc1nn(C)c(=O)c(-c2c(-c3ccc(SC(C)C)cc3)sc3ccc(F)cc23)c1O [2-252] | – | 5 (Herbicidal rate of 90% or more (almost completely withered)) | 2 (Herbicidal rate of 20% or more and less than 40%) | 0 (Herbicidal rate of 5% or less (almost no effect)) | – | – | – | 5 (Herbicidal rate of 90% or more (almost completely withered)) | 2 (Herbicidal rate of 20% or more and less than 40%) | – | 5 (Herbicidal rate of 90% or more (almost completely withered)) | – | 3 (Herbicidal rate of 40% or more and less than 70%) | – | 1 (Herbicidal rate of 5% or more and less than 20%) | 1 (Herbicidal rate of 5% or more and less than 20%) | herbicidal effect on I: wild oat (criteria 0-5) (wild oat [1]; [16]): 4 (Herbicidal rate of 70% or more and less than 90%); herbicidal effect on N: redroot pigweed (criteria 0-5) (redroot pigweed [3]; [16]): 5 (Herbicidal rate of 90% or more (almost completely withered)); herbicidal effect on M: velvetleaf (criteria 0-5) (velvetleaf; [16]): 5 (Herbicidal rate of 90% or more (almost completely withered)); herbicidal effect on P: chickweed (criteria 0-5) (chickweed [4]; [16]): 5 (Herbicidal rate of 90% or more (almost completely withered)); herbicidal effect on J: blackgrass (criteria 0-5) (blackgrass; [16]): 5 (Herbicidal rate of 90% or more (almost completely withered)); herbicidal effect on G: green foxtail (criteria 0-5) (green foxtail [8]; [16]): 4 (Herbicidal rate of 70% or more and less than 90%); herbicidal effect on H: barnyard grass (criteria 0-5) (barnyard grass [10]; [16]): 5 (Herbicidal rate of 90% or more (almost completely withered)) |

Reference: patent US20230085307A1, “PYRIDAZINONE COMPOUND AND HERBICIDE” (NISSAN CHEMICAL CORPORATION, priority 2019, published 2023)
